Consider 26 compounds from patent US20260070922A1, “PYRAZOLE AND IMIDAZOLE DERIVATIVES AS DUAL OREXIN AND KAPPA-OPIOID RECEPTORS MODULATORS COMPOSITION, METHODS FOR TREATING NEUROLOGICAL AND PSYCHIATRIC DISORDERS” (HAGER BIOSCIENCES, LLC, priority 2022, published 2026).

Experiment [1] addresses T1, human orexin-2 receptor (OX2R) (Homo sapiens, UniProt O43614).
T1 construct: expressed in transfected cells; host or cells: CHO cells (G418 selection)
T1 sequence (O43614 1-444): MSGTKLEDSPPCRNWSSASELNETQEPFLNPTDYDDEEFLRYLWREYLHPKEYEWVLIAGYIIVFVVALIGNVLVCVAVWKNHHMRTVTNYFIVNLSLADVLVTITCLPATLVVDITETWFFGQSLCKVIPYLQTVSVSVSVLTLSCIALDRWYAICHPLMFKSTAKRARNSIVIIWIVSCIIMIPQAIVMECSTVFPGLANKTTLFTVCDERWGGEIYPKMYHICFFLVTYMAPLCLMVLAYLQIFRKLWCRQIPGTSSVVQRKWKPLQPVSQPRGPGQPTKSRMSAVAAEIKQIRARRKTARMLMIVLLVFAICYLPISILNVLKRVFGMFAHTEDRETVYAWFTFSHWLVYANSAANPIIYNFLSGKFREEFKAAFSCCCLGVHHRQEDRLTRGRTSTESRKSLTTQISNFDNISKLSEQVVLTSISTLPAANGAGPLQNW
Nature of the experiment: In vitro orexin antagonism assay: intracellular calcium measurement (FLIPR), orexin-A 3 nM as agonist. The experiment is classed as cell-based. The settings on record: for inhibition at 1 µM: read-out: OX2R, % Inh. @ 1 uM. As to the method: Antagonistic activities on both orexin receptors have been measured for each example compound using the following procedure:
(§1) In Vitro Orexin Antagonism Measurement Assay: Intracellular Calcium Measurements:
(§2) Chinese hamster ovary (CHO) cells expressing the human […] and the human orexin-2 receptor, respectively, are grown in culture medium (Ham F-12 with L-Glutamine) containing 300 μg/mL G418, 100 U/mL penicillin, 100 μg/mL streptomycin and 10% heat inactivated fetal calf serum (FCS). The cells are seeded at 20,000 cells/well into 384-well black clear bottom sterile plates (Greiner). The seeded plates are incubated overnight at 37° C. in 5% 002. Human orexin-A as an agonist is prepared as 1 mM stock solution in MeOH: water (1:1), diluted in HBSS containing 0.1% bovine serum albumin (BSA), NaHCO3: 0.375 g/L and 20 mM HEPES for use in the assay at a final concentration of 3 nM.
(§3) Antagonists are prepared as 10 mM stock solution in DMSO, then diluted in 384-well plates using DMSO followed by a transfer of the dilutions into in HBSS containing 0.1% bovine serum albumin (BSA), NaHCO3: 0.375 g/L and 20 mM HEPES. On the day of the assay, 50 μL of staining buffer (HBSS containing 1% FCS, 20 mM HEPES, NaHCO3: 0.375 g/L, 5 mM probenecid (Sigma) and 3 μM of the fluorescent calcium indicator fluo-4 AM (1 mM stock solution in DMSO, containing 10% pluronic) is added to each well. The 384-well cell-plates are incubated for 50 min at 37° C. in 5% CO2 followed by equilibration at RT for 30 min before measurement.
(§4) Within the Fluorescent Imaging Plate Reader (FLIPR Tetra, Molecular Devices), antagonists are added to the plate in a volume of 10 μL/well, incubated for 120 min and finally 10 μL/well of agonist is added. Fluorescence is measured for each well at 1 second intervals, and the height of each fluorescence peak is compared to the height of the fluorescence peak induced by 3 nM orexin-A with vehicle in place of antagonist. The IC50 value (the concentration of compound needed to inhibit 50% of the agonistic response) is determined and may be normalized using the obtained IC50 value of an on-plate reference compound. Optimized conditions were achieved by adjustment of pipetting speed and cell splitting regime. The calculated IC50values may fluctuate depending on the daily cellular assay performance. Fluctuations of this kind are known to those skilled in the art. In the case where IC50values have been determined several times for the same compound, the geometric mean has been given.
For orientation: Calcium assays in cells follow changes in intracellular calcium, usually with a dye or a luminescent sensor.

For experiment [2], the target named is T2, Orexin type 1 (OX1R) receptor (Homo sapiens, UniProt O43613).
T2 construct: expressed in transfected cells; host or cells: CHO cells (G418 selection)
T2 sequence (O43613 1-425): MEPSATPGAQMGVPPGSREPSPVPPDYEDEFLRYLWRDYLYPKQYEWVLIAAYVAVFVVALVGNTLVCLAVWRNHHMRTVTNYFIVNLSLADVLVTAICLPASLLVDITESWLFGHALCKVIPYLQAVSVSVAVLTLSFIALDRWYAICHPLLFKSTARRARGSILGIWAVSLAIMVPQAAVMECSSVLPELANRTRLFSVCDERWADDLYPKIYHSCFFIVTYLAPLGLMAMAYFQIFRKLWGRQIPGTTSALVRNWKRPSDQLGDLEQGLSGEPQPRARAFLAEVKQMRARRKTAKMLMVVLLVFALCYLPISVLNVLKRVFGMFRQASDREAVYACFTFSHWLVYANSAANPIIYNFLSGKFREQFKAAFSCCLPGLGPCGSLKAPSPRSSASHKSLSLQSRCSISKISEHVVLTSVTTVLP
The experiment is described as above. The format is cell-based. Particulars: for IC50: first value of IC50/Kb cell; for inhibition at 1 µM: read-out: OX1R, % Inh. @ 1 uM; for Kb: second value of IC50/Kb cell. As to the method:
as §1, §2, §3
as §4, with “art.” for “art. In the case where IC50values have been determined several times for the same compound, the geometric mean has been given.”

The term IC50 denotes the concentration that gives 50% inhibition. What is called Kb is the affinity of an antagonist, worked out from how it opposes an agonist. In the case of `O=C(c1c(-c2ccccc2)nc2cc(C(F)(F)F)ccn12)N1[C@H](Cn2ccc(-c3ccc(F)cn3)n2)C[C@@H]2C[C@@H]21` [Example 110], in experiment [1], the inhibition at 1 µM is 42%. In experiment [2], the IC50 was 280 nM, the inhibition at 1 µM was determined as 69% and the Kb was determined as 60 nM.
Consider `O=C(c1c(-c2ccccc2)nn2c1COCC2)N1CCOC[C@H]1COc1ccc(C(F)(F)F)cn1` [Example 113], for which the inhibition at 1 µM worked out at 8% in experiment [1] and 12% in experiment [2].
`O=C(c1c(-c2ccccc2)nn2ccccc12)N1CCOC[C@H]1COc1ccc(C(F)(F)F)cn1` [Example 114]: the values for the inhibition at 1 µM in experiment [1] and in experiment [2] were 6% and 14%, respectively.
In the case of `O=C(c1c(-c2ccccc2)nn2c1COCC2)N1CCC[C@H]1Cc1nc(-c2ccc(F)cn2)no1` [Example 116], the values for the inhibition at 1 µM in experiment [1] and in experiment [2] were 19% and 10%, respectively.
Turning to `O=C(c1c(-c2ccccc2)nc2ccc(F)cn12)N1CCC[C@H]1Cc1nc(-c2ccc(F)cn2)no1` [Example 121], the inhibition at 1 µM in experiment [1] worked out at 45%; in experiment [2] it was 44%.
For the compound `O=C(c1nc2ccccn2c1-c1ccccc1)N1CCC[C@H]1Cn1ccc(-c2ccc(F)cn2)n1` [Example 123], in experiment [1] (@ 1 uM), the “OX2R, % Inh. @ 1 uM” value came to 42%. Further, in experiment [2] (@ 1 uM), the “OX1R, % Inh. @ 1 uM” value is 100%.
`O=C(c1nc2ccccn2c1-c1ccccc1)N1CCC[C@H]1COc1ccc(C(F)(F)F)cn1` [Example 124]: the inhibition at 1 µM in experiment [1] worked out at 36%. For the same compound, in experiment [2], the half-inhibitory concentration (IC50) was 5 nM, the inhibition at 1 µM is 100% and the antagonist equilibrium constant (Kb) came to 1 nM.
Consider `O=C(c1nn2c(c1-c1ccccc1)OCCC2)N1CCC[C@H]1COc1ccc(C(F)(F)F)cn1` [Example 142], for which the inhibition at 1 µM in experiment [1] turned out to be 42%. Moreover, in experiment [2], the IC50 was found to be 6 nM, the inhibition at 1 µM is 100% and the antagonist equilibrium constant (Kb) was 1 nM.
With `O=C(c1nn2c(c1-c1ccccc1)COCC2)N1C2CCC1(COc1ccc(C(F)(F)F)cn1)CC2` [Example 159], the inhibition at 1 µM in experiment [1] came out at 15%. Further, in experiment [2], the IC50 worked out at 48 nM, the inhibition at 1 µM is 86% and the Kb was determined as 10 nM.
In the case of `O=C(c1nc2ccccn2c1-c1ccccc1)N1C2CCC1(COc1ccc(C(F)(F)F)cn1)CC2` [Example 160], in experiment [1], the inhibition at 1 µM is 2%. Further, in experiment [2], the concentration for half-maximal inhibition (IC50) was 24 nM, the inhibition at 1 µM amounted to 98% and the antagonist equilibrium constant (Kb) amounted to 5 nM.
With `O=C(c1c(-c2ncccn2)nn2ccccc12)N1C2CCC1(COc1ccc(C(F)(F)F)cn1)CC2` [Example 161], the inhibition at 1 µM was determined as 6% in experiment [1] and 44% in experiment [2].
`C[C@@]1(COc2cnc(C(F)(F)F)cn2)CCCN1C(=O)c1nn2c(c1-c1ccccc1)COCC2` [Example 162]: the inhibition at 1 µM was 0% in experiment [1] and 36% in experiment [2].
With `C[C@@]1(COc2cnc(C(F)(F)F)cn2)CCCN1C(=O)c1nc2ccccn2c1-c1ccccc1` [Example 163], the inhibition at 1 µM in experiment [1] came to 11%. In addition, in experiment [2], the IC50 worked out at 771 nM, the inhibition at 1 µM was found to be 75% and the antagonist dissociation constant (Kb) is 162 nM.
`C[C@@]1(COc2cnc(C(F)(F)F)cn2)CCCN1C(=O)c1c(-c2ccccn2)nn2ccccc12` [Example 164]: the inhibition at 1 µM in experiment [1] came to 20%. Besides, in experiment [2], the IC50 is 305 nM, the inhibition at 1 µM is 84% and the Kb amounted to 64 nM.
Regarding `C[C@@]1(COc2cnc(C(F)(F)F)cn2)CCCN1C(=O)c1nn2c(c1-c1ccccc1)OCCC2` [Example 165], the inhibition at 1 µM in experiment [1] amounted to 6%; in experiment [2], 50%.
As for `C[C@@]1(COc2cnc(C(F)(F)F)cn2)CCCN1C(=O)c1c(-c2ncccn2)nn2ccccc12` [Example 166], the figures for the inhibition at 1 µM in experiment [1] and in experiment [2] were 10% and 53%, respectively.
Turning to `C[C@@]1(COc2cnc(C(F)(F)F)cn2)CCCN1C(=O)c1nn2cccnc2c1-c1ccccc1` [Example 167], in experiment [1], the inhibition at 1 µM is 20%. In addition, in experiment [2], the IC50 turned out to be 326 nM, the inhibition at 1 µM came to 82% and the Kb worked out at 69 nM.
Take `C[C@@]1(COc2cnc(C(F)(F)F)cn2)CCCN1C(=O)c1c(-c2ccccc2)nn2cccnc12` [Example 168]: the inhibition at 1 µM in experiment [1] worked out at 28%. Also, in experiment [2], the IC50 was 475 nM, the inhibition at 1 µM is 72% and the Kb was determined as 100 nM.
Turning to `C[C@@]1(COc2cnc(C(F)(F)F)cn2)CCCN1C(=O)c1c(-c2ccccc2)nn2c1COCC2` [Example 169], the inhibition at 1 µM in experiment [1] came to 15%; in experiment [2] it was 2%.
On to `C[C@@]1(COc2cnc(C(F)(F)F)cn2)CCCN1C(=O)c1nn2ccccc2c1-c1ccccc1` [Example 170], for which, in experiment [1], the inhibition at 1 µM was 23%. Further, in experiment [2], the IC50 worked out at 460 nM, the inhibition at 1 µM amounted to 85% and the antagonist equilibrium constant (Kb) was found to be 97 nM.
Take `O=C(c1nn2ccccc2c1-c1ccccn1)N1CCC[C@H]1Cc1nc(-c2ccccn2)no1` [Example 175]: in experiment [1], the inhibition at 1 µM was found to be 29%. Moreover, in experiment [2], the IC50 was found to be 11 nM, the inhibition at 1 µM amounted to 93% and the Kb worked out at 2 nM.
On the same counts, the results for `O=C(c1nn2ccccc2c1-c1ccccn1)N1CCC[C@H]1Cc1nc(-c2ccc(F)cn2)no1` [Example 176] are 40%, 12 nM, 93% and 2 nM.
For `O=C(c1nc2ccccn2c1-c1ccccn1)N1CCC[C@H]1COc1ccc(C(F)(F)F)cn1` [Example 179], in that order: 12%, 8 nM, 99% and 2 nM.
For `O=C(c1nc2ccccn2c1-c1ccccn1)N1CCC[C@H]1Cn1ccc(-c2ccccn2)n1` [Example 180], in that order: 27%, 17 nM, 97% and 4 nM.
As for `O=C(c1nn2ccccc2c1-c1ccccn1)N1CCC[C@H]1Cn1ccc(-c2ccc(F)cn2)n1` [Example 182], the inhibition at 1 µM in experiment [1] turned out to be 59%. In experiment [2], the IC50 worked out at 19 nM, the inhibition at 1 µM was 96% and the Kb is 4 nM.
For `O=C(c1nc2n(c1-c1ccccn1)CCOC2)N1CCC[C@H]1COc1ccc(C(F)(F)F)cn1` [Example 184], the inhibition at 1 µM in experiment [1] was determined as 10%; in experiment [2], 42%.
